Holding throughout (format): in vivo
The subject of experiment [1] is Rhipicephalus (Boophilus) microplus larvae (strain Parkhurst, resistant against synthetic pyrethroids). As to the kind of experiment: Rhipicephalus (Boophilus) microplus in-vitro contact test, larval cattle tick. Conditions: 5 μg/cm^2 (=500 g/ha), after 48 hours, read-out: efficacy (larvae dead or moribund). As for the experimental part: Rhipicephalus (Boophilus) microplus—In-Vitro Contact Tests Larval Cattle Tick (Strain Parkhurst, Resistant Against Synthetic Pyrethroids)
(§1) 9 mg compound is solved in 1 mL acetone and diluted with acetone to the desired concentration. 250 μL of the test solution is filled in 25 mL glass test tubes and homogeneously distributed on the inner walls by rotation and tilting on a shaking device (2 h at 30 rpm). With a compound concentration of 900 ppm, an inner surface of 44.7 cm^2 and a homogeneous distribution, a dose of 5 μg/cm^2 is achieved.
After the solvent has evaporated, each test tube is filled with 20-50 cattle tick larvae (Rhipicephalus microplus), closed with a perforated lid and incubated in a horizontal position at 85% relative humidity and 27° C. in an incubator. After 48 hours efficacy is determined. The larvae are patted on the ground of the tubes and negative geotactic behavior is recorded.
An efficacy of 100% means all larvae are dead or moribund; 0% means no larvae are dead or moribund.

Experiment [2] relates to green peach aphid (Myzus persicae). The experiment can be described thus: Myzus persicae spray test. The conditions noted are these: foliar, 120 h, after 5 days, Chinese cabbage leaf disks. As for the experimental part:
Myzus persicae—Spray Test
• Solvent: 78.0 parts by weight acetone • 1.5 parts by weight dimethylformamide • Emulsifier: alkylarylpolyglycol ether
To produce a suitable preparation of active compound, 1 part by weight of active compound is mixed with the stated amount of solvents and is diluted with water, containing an emulsifier concentration of 1000 ppm, to the desired concentration. Further test concentrations are prepared by dilution with emulsifier containing water.
Chinese cabbage (Brassica pekinensis) leaf disks infected with all instars of the green peach aphid (Myzus persicae), are sprayed with a preparation of the active ingredient of the desired concentration.
(§2) After 5 days mortality in % is determined. 100% means all aphids have been killed and 0% means none of the aphids have been killed.

In experiment [3] the test system is adult cat fleas (Ctenocephalides felis). The experiment can be described thus: Ctenocephalides felis in-vitro contact test, adult cat flea. The conditions noted are these: 5 μg/cm^2 (=500 g/ha), after 48 hours, read-out: efficacy (fleas dead or moribund). As for the experimental part:
Ctenocephalides felis—In-Vitro Contact Tests Adult Cat Flea
as §1
After the solvent has evaporated, each test tube is filled with 5-10 adult cat fleas (Ctenocephalides felis), closed with a perforated lid and incubated in a lying position at room temperature and relative humidity. After 48 hours efficacy is determined. The fleas are patted on the ground of the tubes and are incubated on a heating plate at 45-50° C. for at most 5 minutes Immotile or uncoordinated moving fleas, which are not able to escape the heat by climbing upwards, are marked as dead or moribund.
An efficacy of 100% means all fleas are dead or moribund; 0% means no fleas are dead or moribund.

In experiment [4] the test system is larvae of the banded cucumber beetle (Diabrotica balteata). The experiment can be described thus: Diabrotica balteata spray test. Conditions: 168 h, 100 g/ha (=32 μg/well), after 7 days, wheat seeds, read-out: efficacy (seedling growth). The gist of the method:
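Germinated wheat seeds on agar (5 per well) were sprayed with compound formulated in acetone/DMF and diluted in water with 1000 ppm emulsifier. Each unit was then infested with 10–20 larvae. Efficacy % was scored after 7 days as seedling growth relative to an untreated, uninfested control (100% = normal growth).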

The test system of experiment [5] is larvae of the southern green stink bug (Nezara viridula). As to the kind of experiment: Nezara viridula spray test. Conditions: 96 h, after 4 days, barley plants. The gist of the method: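 Compound in acetone/DMF was diluted in water with 1000 ppm alkylarylpolyglycol ether emulsifier. Barley plants were sprayed with it, then infested with Nezara viridula larvae. Mortality % was scored after 4 days (100% = all killed).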

The test system of experiment [6] is fall armyworm larvae (Spodoptera frugiperda). The experiment can be described thus: Spodoptera frugiperda spray test. Conditions: in Zea mays, 168 h. The gist of the method: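 Maize leaf sections were sprayed with compound in acetone/dimethylformamide diluted in water with 1000 ppm emulsifier, dried, then infested with larvae. Mortality in % was scored after 7 days, 100% meaning all caterpillars killed.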

Experiment [7] concerns adult brown dog ticks (Rhipicephalus sanguineus). The experiment can be described thus: Rhipicephalus sanguineus in-vitro contact test, adult brown dog ticks. Conditions: 5 μg/cm^2 (=500 g/ha), after 48 hours, read-out: efficacy (ticks dead or moribund). As for the experimental part: Rhipicephalus sanguineus—In-Vitro Contact Tests with Adult Brown Dog Ticks
as §1
After the solvent has evaporated, each test tube is filled with 5-10 adult brown dog ticks (Rhipicephalus sanguineus), closed with a perforated lid and incubated in a lying position at room temperature and relative humidity. After 48 hours efficacy is determined. The ticks are patted on the ground of the tubes and are incubated on a heating plate at 45-50° C. for at most 5 minutes Immotile or uncoordinated moving ticks, which are not able to escape the heat by climbing upwards, are marked as dead or moribund.
An efficacy of 100% means all ticks are dead or moribund; 0% means no ticks are dead or moribund.

Experiment [8] has as its system adult flies Musca domestica strain WHO-N. As to the kind of experiment: Musca domestica test (MUSCDO surface treatment & contact assay). The conditions noted are these: 24 hours after contact, read-out: efficacy (mortality); for mortality at 4 mg/m2: surface concentration 4 mg/m^2, 30 minutes exposure; for mortality at 20 mg/m2: surface concentration 20 mg/m^2, 30 minutes exposure. As for the experimental part: Musca domestica Test (MUSCDO Surface Treatment & Contact Assay)
(§3) • Solvent: Aceton+2000 ppm rapeseed oil methyl ester (RME)
In order to produce a sufficient, active ingredient containing solution it is necessary to solve the test compound in the solvent-mix (acetone at 2 mg/ml/RME 2000 ppm). This solution is pipetted onto a glazed tile and after evaporation of the acetone, adult flies of the species Musca domestica strain WHO-N are placed onto the dried surface. The exposure time is 30 minutes.
(§4) Mortality in percent (%) is determined 24 hours after contact of the insects to the treated surface. 100% mortality means that all tested insects are dead, whereas 0% means that no insect died.

In experiment [9] the test system is adult mosquitoes Aedes aegypti strain MONHEIM. The experiment can be described thus: Aedes aegypti test (AEDSAE surface treatment & contact assay). Conditions: 24 hours after contact, read-out: efficacy (mortality); for mortality at 4 mg/m2: surface concentration 4 mg/m^2, 30 minutes exposure; for mortality at 20 mg/m2: surface concentration 20 mg/m^2, 30 minutes exposure. As for the experimental part: Aedes aegypti Test (AEDSAE Surface Treatment & Contact Assay)
as §3
In order to produce a sufficient, active ingredient containing solution it is necessary to solve the test compound in the solvent-mix (acetone at 2 mg/ml/RME 2000 ppm). This solution is pipetted onto a glazed tile and after evaporation of the acetone, adult mosquitoes of the species Aedes aegypti strain MONHEIM are placed onto the dried surface. The exposure time is 30 minutes.
as §4

Experiment [10] concerns adult mosquitoes Culex quinquefasciatus strain P00. As to the kind of experiment: Culex quinquefasciatus test (CULXFA surface treatment & contact assay). The conditions noted are these: 24 hours after contact, read-out: efficacy (mortality); for mortality at 4 mg/m2: surface concentration 4 mg/m^2, 30 minutes exposure; for mortality at 20 mg/m2: surface concentration 20 mg/m^2, 30 minutes exposure. As for the experimental part: Culex quinquefasciatus Test (CULXFA Surface Treatment & Contact Assay)
as §3
In order to produce a sufficient, active ingredient containing solution it is necessary to solve the test compound in the solvent-mix (acetone at 2 mg/ml/RME 2 000 ppm). This solution is pipetted onto a glazed tile and after evaporation of the acetone, adult mosquitoes of the species Culex Quinquefasciatus strain P00 are placed onto the dried surface. The exposure time is 30 minutes. Mortality in percent (%) is determined 24 hours after contact of the insects to the treated surface. 100% mortality means that all tested insects are dead, whereas 0% means that no insect died.

The subject of experiment [11] is green peach aphid (Myzus persicae). As to the kind of experiment: Myzus persicae oral test. Conditions: 120 h, 4 ppm, after 5 days. As for the experimental part:
• Solvent: 100 parts by weight acetone
To produce a suitable preparation of active compound, 1 part by weight of active compound is mixed with the stated amount of solvent, and the concentrate is diluted with water to the desired concentration.
50 μL compound solution is filled in microtiter plates and 150 μL IPL41 insect medium (33%+15% sugar) is added to obtain a total volume of 200 μL per well. Afterwards the plates are sealed with parafilm through which a mixed population of the green peach aphid (Myzus persicae) can suck on the compound preparation.
as §2

The test system of experiment [12] is adult engorged female ticks (Rhipicephalus microplus). The experiment can be described thus: Rhipicephalus (Boophilus) microplus injection test. Conditions: 168 h, egg deposition monitored after 7 days, read-out: efficacy (infertile eggs). The gist of the method:
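Five adult engorged female ticks each injected with 1 μL of DMSO compound solution into the abdomen, then kept in a climate chamber. Fertile egg deposition assessed after 7 days, with hatching followed to about 42 days; efficacy 100% means all eggs infertile, 0% all fertile.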

For the molecule `C[C@H](NC(=O)c1cc(C(F)(F)F)cc(C(C)(C)C#N)c1)c1ncnn1-c1cnc(C#N)cn1` [Example I-58], the pest or weed control at 5 µg/cm2, 5 µg/cm2 is 100% in experiment [1], 100% in [3] and 80% in [7]. The results for the mortality at 100 g/ha in [2], in experiment [5] and in [6] were 90%, 100% and 100%, respectively. In addition, in experiment [4], the pest or weed control at 32 µg/disc, 100 g/ha is 100%. Also, the mortality at 500 g/ha in experiment [5] turned out to be 100%.

Regarding `C[C@H](NC(=O)c1cc(C(F)(F)F)cc(C(C)(C)C#N)c1)c1ncnn1-c1ncc(C#N)s1` [Example I-44, 3-(1-Cyano-1-methyl-ethyl)-N-[(1S)-1-[2-(5-cyanothiazol-2-yl)-1,2,4-triazol-3-yl]ethyl]-5-(trifluoromethyl)benzamide], the mortality at 4 mg/m2 in experiment [8], in [9] and in [10] was 80 to 100% throughout. For the same molecule, the mortality at 20 mg/m2 in experiment [8], in experiment [9] and in [10] was 80 to 100% throughout. Also, the pest or weed control at 5 µg/cm2, 5 µg/cm2 in experiment [1] was determined as 100%; in experiment [3] it was 100%; in experiment [7] it was 80%. For the same molecule, the mortality at 100 g/ha in [2], in experiment [5] and in experiment [6] was 100% in each case. Besides, the mortality at 500 g/ha in [5] was determined as 100%.

In [11], `C[C@H](NC(=O)c1cc(OCC(Cl)=C(Cl)Cl)cc(C(F)(F)F)c1)c1ncnn1-c1ncc([N+](=O)[O-])s1` [Example I-34] registered a mortality at 4 ppm of 90%.

For the molecule `C[C@H](NC(=O)c1cc(C(F)(F)F)cc(C(C)(C)C#N)c1)c1ncnn1-c1ccc(C#N)cn1` [Example I-42], the mortality at 4 mg/m2 in [8], in experiment [9] and in experiment [10] was 80 to 100% each time. Also, the mortality at 20 mg/m2 in experiment [8], in experiment [9] and in experiment [10] was 80 to 100% each time. Moreover, the figures for the pest or weed control at 5 µg/cm2, 5 µg/cm2 in experiment [1], in experiment [3] and in experiment [7] were 100%, 80% and 80%, respectively. The mortality at 100 g/ha in [2], in experiment [5] and in experiment [6] was 100% each time. Also, in [4], the pest or weed control at 32 µg/disc, 100 g/ha turned out to be 100%. In [5], this molecule had a mortality at 500 g/ha of 100%.

On to `Cc1nc([C@H](C)NC(=O)c2cc(OC(C)c3ccc(Cl)cc3)cc(C(F)(F)F)c2)n(-c2ccc(C#N)cn2)n1` (stereo partly drawn) [Example I-15, 3-[1-(4-Chlorophenyl)ethoxy]-N-{(1S)-1-[1-(5-cyanopyridin-2-yl)-3-methyl-1H-1,2,4-triazol-5-yl]ethyl}-5-(trifluoromethyl)benzamide], for which the pest or weed control at 32 µg/disc, 100 g/ha in experiment [4] was 100%. In addition, in [12] (4 μg/tick injected), the pest or weed control at 4 µg/tick turned out to be 100%. For the same molecule, the pest or weed control at 20 µg/tick in experiment [12] (20 μg/tick injected) was found to be 100%. In addition, in experiment [7], the pest or weed control at 5 µg/cm2, 5 µg/cm2 came to 80%.

`C[C@H](NC(=O)c1cc(OCC2CC2(Cl)Cl)cc(C(F)(F)F)c1)c1ncnn1-c1ccc(C#N)cn1` (some centres unmarked) [Example I-29] gave a mortality at 4 ppm in [11] of 90%. In experiment [4], the pest or weed control at 32 µg/disc, 100 g/ha came to 100%.

In the case of `Cc1nc([C@H](C)NC(=O)c2cc(OC3CCOCC3)cc(C(F)(F)F)c2)n(-c2ccc(C#N)cn2)n1` [Example I-21, N-{(1S)-1-[1-(5-Cyanopyridin-2-yl)-3-methyl-1H-1,2,4-triazol-5-yl]ethyl}-3-(tetrahydro-2H-pyran-4-yloxy)-5-(trifluoromethyl)benzamide], the pest or weed control at 5 µg/cm2, 5 µg/cm2 in experiment [1] was 100%; in [7], 80%. The mortality at 100 g/ha in experiment [6] came out at 83%.

Consider `C[C@H](NC(=O)c1cc(Br)cc(C(F)(F)C2CC2)c1)c1ncnn1-c1cnc(C#N)cn1` [Example I-59], for which the pest or weed control at 5 µg/cm2, 5 µg/cm2 in [1] stood at 100%; in experiment [3], 80%; in experiment [7], 100%. In addition, the mortality at 100 g/ha amounted to 90% in experiment [2], 100% in experiment [5] and 100% in [6]. The pest or weed control at 32 µg/disc, 100 g/ha in experiment [4] was 100%. The mortality at 500 g/ha in experiment [5] amounted to 100%.

In general, mortality refers to the share of the test organisms that died.

The values are drawn from patent US12653190B2, “Heteroaryl-triazole compounds as pesticides” (Bayer Aktiengesellschaft, priority 2020, dated 2026).
